The subject of the assay is human Vα24+/Vβ11+ iNKT cells. The assay is described as follows: Stimulation of human Vα24+/Vβ11+ NKT cell populations in PBMC culture, flow cytometry. Conditions: PBMC from a normal healthy donor, 100 nM, 14 days of culture. Format: cell-based. How it is done:
Peripheral blood mononuclear cells (PBMC) from a normal healthy donor were incubated with each individual compound at a final concentration of 100 nM. After 14 days of culture, NKT cell frequencies were determined by flow cytometry. NKT cell frequencies were defined as the percentage of Vα24+/V−β11+ cells among gated lymphocytes in the upper right (UR) corner for each case. Shown here are the profiles of PBMC harvested from 14-day cultures containing (a) vehicle alone (DMSO, UN), or (b) 100 nM of α-GalCer (KS), (c) analog 18 (DABB), or (d) analog 19 (DAGBB), as indicated.
The less toxic product mixtures were further examined. These sample mixtures after simple filtration through silica gel were submitted to analysis with ESI-MS. […] Among them, 4-benzyl benzoic acid derived amide product showing the most significant signals was resynthesized in both its ceramidic form 18 and galactosyl ceramidic form 19 (Scheme 6). The subsequent validation experiment was performed by MTT assay and flowcytotmetry (FIG. 4). […] This confirmed the important role played by sugar moieties.
For orientation: A flow cytometer gives signals particle by particle.

“Also recorded” adds a separate entry of the source.

Here are results for one compound from patent publication US20130217639A1, “COMPOUND FOR ACTIVATING NATURAL KILLER T CELLS AND PREPARING METHOD THEREOF” (NATIONAL TSING HUA UNIVERSITY, priority 2012, published 2013).

Consider `CCCCCCCCCCCCCC[C@@H](O)[C@@H](O)[C@H](CO[C@H]1O[C@H](CNC(=O)c2ccc(CCCC)cc2)[C@H](O)[C@H](O)[C@H]1O)NC(=O)c1ccc(CCCC)cc1` [analog 19, 4-butyl-N-(((2R,3R,4S,5R,6S)-6-(((2S,3S,4R)-2-(4-butylbenzamido)-3,4-dihydroxyoctadecyl)oxy)-3,4,5-trihydroxytetrahydro-2H-pyran-2-yl)methyl)benzamide], for which the “stimulation of Vα24+/Vβ11+ iNKT cell population” value was “stimulats human iNKT cell population; also recorded: stimulative”.
